Experimental data from US20100331348A1, “TROPANE DERIVATIVES USEFUL AS PESTICIDES” (SYNGENTA CROP PROTECTION, INC., priority 2007, published 2010).
Like-named read-outs stand apart in the source and are kept apart here.

Legend:
[1] = test system: Puccinia recondita f.sp. tritici; experiment: Puccinia recondita f.sp. tritici (wheat brown rust) leaf disk assay; format: in vivo; conditions: foliar, 216 h, preventive, nine days after inoculation, read-out: control of fungal infection, Puccinia recondita f.sp. tritici
Pyricularia oryzae = experiment: whole plant or invertebrate; format: in vivo; conditions: foliar, 96 h
[2] = test system: Erysiphe graminis f.sp. tritici; experiment: Erysiphe graminis f.sp. tritici (wheat powdery mildew) leaf disk assay; format: in vivo; conditions: Blumeria graminis, foliar, 96 h, preventive, four days after inoculation, read-out: control of fungal infection, Erysiphe graminis fsp. tritici
Phytophthora infestans = experiment: whole plant or invertebrate; format: in vivo; conditions: foliar, 96 h, read-out: control of fungal infection, Phytophthora infestans
Plutella xylostella = Plutella xylostella (Diamond back moth) artificial diet test; conditions: 120 h, read-out: control of Plutella xylostella
Aedes aegypti = Aedes aegypti (Yellow fever mosquito) larvae test; format: in vivo; conditions: 48 h
[3] = read-out: control of fungal infection, Pyricularia oryzae (at least 80% list)
[4] = read-out: control of fungal infection, Pyricularia oryzae (at least 60% list)

| Compound | pest or weed control at 200 ppm [1] | pest or weed control at 200 ppm (Pyricularia oryzae; [3]) | pest or weed control at 200 ppm [2] | pest or weed control at 200 ppm (Phytophthora infestans) | pest or weed control at 200 ppm (Plutella xylostella) | pest or weed control at 200 ppm (Pyricularia oryzae; [4]) | pest or weed control at 2 ppm (Aedes aegypti) |
| --- | --- | --- | --- | --- | --- | --- | --- |
| c1cnc(OC2C[C@H]3CC[C@@H](C2)N3c2ncnc3sccc23)nc1 (stereo partly drawn) [Example 1.2] | ≥ 80% | ≥ 80% | ≥ 80% | ≥ 80% | – | – | – |
| Fc1cccc(OC2C[C@H]3CC[C@@H](C2)N3c2ncnc3sccc23)c1F (stereo partly drawn) [Example 1.24] | ≥ 80% | – | – | – | ≥ 80% | ≥ 60% | ≥ 80% |
| CCc1ncnc(N2[C@@H]3CC[C@H]2CC(Oc2cccc(F)c2F)C3)c1Cl (stereo partly drawn) [Example 1.164] | ≥ 80% | – | ≥ 80% | – | ≥ 80% | – | ≥ 80% |
| CCc1ncnc(N2[C@@H]3CC[C@H]2CC(Oc2ccc(OC)cc2C(C)=O)C3)c1Cl (stereo partly drawn) [Example 1.211] | – | – | – | ≥ 80% | – | – | – |
| CC(C)c1ccc(OC2C[C@H]3CC[C@@H](C2)N3c2ncnc3sccc23)cc1 (stereo partly drawn) [Example 2.17] | – | – | ≥ 80% | – | ≥ 80% | – | – |
| c1ccc2c(c1)[nH]c1cc(OC3C[C@H]4CC[C@@H](C3)N4c3ncnc4sccc34)ccc12 (stereo partly drawn) [Example 2.19] | – | – | ≥ 80% | ≥ 80% | – | – | – |
| Cc1ccc(OC2C[C@H]3CC[C@@H](C2)N3c2ncnc3sccc23)cn1 (stereo partly drawn) [Example 2.44] | – | – | ≥ 80% | ≥ 80% | – | – | – |
| FC(F)(F)c1ccc(OC2C[C@H]3CC[C@@H](C2)N3c2ncnc3sccc23)nc1 (stereo partly drawn) [Example 2.61] | ≥ 80% | – | ≥ 80% | ≥ 80% | – | ≥ 60% | – |
| Cc1nsc(Oc2cccc(OC3C[C@H]4CC[C@@H](C3)N4c3ncnc4scc(C)c34)c2)n1 (stereo partly drawn) [Example 2.73] | – | – | ≥ 80% | ≥ 80% | – | – | – |
| FC(F)(F)c1cccc(OC2C[C@H]3CC[C@@H](C2)N3c2ncnc3ccccc23)n1 (stereo partly drawn) [Example 2.83] | ≥ 80% | – | ≥ 80% | ≥ 80% | – | – | – |
| C#CCOc1ccc(C(C)(C)c2ccc(OC3C[C@H]4CC[C@@H](C3)N4c3ncnc4sccc34)cc2)cc1 (stereo partly drawn) [Example 2.225] | – | – | – | – | ≥ 80% | – | – |
| CCc1ncnc(N2C3CCC2CC(=CC(=O)N(C)C)C3)c1Cl [Example 3.3] | – | – | – | ≥ 80% | – | – | – |
| CN(C)C(=O)C=C1CC2CCC(C1)N2c1ncnc2sccc12 [Example 3.25] | – | – | – | ≥ 80% | – | – | – |
| CCc1ncnc(N2[C@@H]3CC[C@H]2CC(NCc2ccc(Cl)cc2)C3)c1Cl (stereo partly drawn) [Example 4.12] | – | – | – | ≥ 80% | – | – | – |
| CCc1ncnc(N2C3CCC2CC(=NOc2ncccn2)C3)c1Cl [Example 5.2] | – | – | – | ≥ 80% | – | – | – |
| CCc1ncnc(N2C3CCC2CC(=NOCc2ccc4ccccc4c2)C3)c1Cl [Example 5.8] | ≥ 80% | – | ≥ 80% | – | ≥ 80% | – | – |
| CCc1ncnc(N2C3CCC2CC(=NOCc2cccc(C)c2)C3)c1Cl [Example 5.12] | ≥ 80% | – | ≥ 80% | – | ≥ 80% | – | ≥ 80% |
| CCc1ncnc(N2C3CCC2CC(=NOCC(=O)OC(C)(C)C)C3)c1Cl [Example 5.24] | – | – | ≥ 80% | ≥ 80% | – | – | – |
| CCc1ncnc(N2C3CCC2CC(=NOCc2ccc(C)c(C)c2)C3)c1Cl [Example 5.27] | ≥ 80% | – | ≥ 80% | – | ≥ 80% | – | – |
| CCc1ncnc(N2C3CCC2CC(=NOCc2ccccc2Cl)C3)c1Cl [Example 5.28] | ≥ 80% | – | ≥ 80% | – | ≥ 80% | – | ≥ 80% |
| CCc1ncnc(N2C3CCC2CC(=NOCc2ccccc2Br)C3)c1Cl [Example 5.31] | ≥ 80% | – | ≥ 80% | – | ≥ 80% | – | – |
| CCc1ncnc(N2C3CCC2CC(=NOCc2c(C)cc(C)cc2C)C3)c1Cl [Example 5.33] | – | – | ≥ 80% | – | ≥ 80% | – | – |
| CCc1ncnc(N2C3CCC2CC(=NOCc2c(Cl)cccc2Cl)C3)c1Cl [Example 5.34] | – | – | ≥ 80% | – | ≥ 80% | – | – |
| CCc1ncnc(N2C3CCC2CC(=NOCc2ccc(C)cc2C)C3)c1Cl [Example 5.36] | ≥ 80% | – | ≥ 80% | – | ≥ 80% | – | ≥ 80% |

| Compound | pest or weed control at 200 ppm [1] | pest or weed control at 200 ppm (Pyricularia oryzae; [3]) | pest or weed control at 200 ppm [2] | pest or weed control at 200 ppm (Phytophthora infestans) | pest or weed control at 200 ppm (Plutella xylostella) | pest or weed control at 200 ppm (Pyricularia oryzae; [4]) | pest or weed control at 2 ppm (Aedes aegypti) |
| --- | --- | --- | --- | --- | --- | --- | --- |
| CCc1ncnc(N2C3CCC2CC(=NOCc2cccc(C#N)c2)C3)c1Cl [Example 5.44] | ≥ 80% | – | ≥ 80% | – | ≥ 80% | – | ≥ 80% |
| CCc1ncnc(N2C3CCC2CC(=NOCc2ccc(Cl)cc2Cl)C3)c1Cl [Example 5.50] | – | – | – | – | ≥ 80% | – | – |
| CCc1ncnc(N2C3CCC2CC(=NOCc2ccc(NC(C)=O)cc2)C3)c1Cl [Example 5.51] | ≥ 80% | – | ≥ 80% | ≥ 80% | – | – | – |
| CCc1ncnc(N2C3CCC2CC(=NOCc2c(F)cccc2F)C3)c1Cl [Example 5.61] | ≥ 80% | – | ≥ 80% | – | ≥ 80% | ≥ 60% | ≥ 80% |
| CCc1ncnc(N2C3CCC2CC(=NOCc2ccccc2OC(F)F)C3)c1Cl [Example 5.68] | ≥ 80% | – | ≥ 80% | – | ≥ 80% | – | ≥ 80% |
| CCc1ncnc(N2C3CCC2CC(=NOCc2ccccc2C(F)(F)F)C3)c1Cl [Example 5.70] | ≥ 80% | – | ≥ 80% | – | ≥ 80% | – | ≥ 80% |
| CCc1ncnc(N2C3CCC2CC(=NOCc2cccc(C)c2F)C3)c1Cl [Example 5.74] | ≥ 80% | – | ≥ 80% | – | ≥ 80% | – | – |
| CCc1ncnc(N2C3CCC2CC(=NOCc2cccc(Cl)c2F)C3)c1Cl [Example 5.79] | ≥ 80% | – | ≥ 80% | – | ≥ 80% | – | – |
| CCc1ncnc(N2C3CCC2CC(=NOCc2ccc(OC)c(Cl)c2Cl)C3)c1Cl [Example 5.88] | ≥ 80% | ≥ 80% | ≥ 80% | – | ≥ 80% | – | ≥ 80% |
| CCc1ncnc(N2C3CCC2CC(=NOCc2c(C)noc2C)C3)c1Cl [Example 5.110] | ≥ 80% | – | – | ≥ 80% | – | – | – |
| c1ccc(CCON=C2CC3CCC(C2)N3c2ncnc3sccc23)cc1 [Example 5.140] | ≥ 80% | ≥ 80% | ≥ 80% | ≥ 80% | – | ≥ 60% | – |
| Brc1ccc(CON=C2CC3CCC(C2)N3c2ncnc3sccc23)cc1 [Example 5.158] | ≥ 80% | ≥ 80% | ≥ 80% | ≥ 80% | – | – | – |
| CC(=O)Nc1ccc(CON=C2CC3CCC(C2)N3c2ncnc3sccc23)cc1 [Example 5.159] | – | – | ≥ 80% | ≥ 80% | – | – | – |
| COc1cccc(CON=C2CC3CCC(C2)N3c2ncnc3sccc23)c1 [Example 5.164] | ≥ 80% | – | ≥ 80% | – | ≥ 80% | – | ≥ 80% |
| c1ccc(-c2ccccc2CON=C2CC3CCC(C2)N3c2ncnc3sccc23)cc1 [Example 5.177] | – | – | – | ≥ 80% | – | – | – |
| FC(F)(F)c1cccc(CON=C2CC3CCC(C2)N3c2ncnc3sccc23)c1 [Example 5.187] | ≥ 80% | – | ≥ 80% | – | ≥ 80% | ≥ 60% | ≥ 80% |
| FC(F)(F)c1ccccc1CON=C1CC2CCC(C1)N2c1ncnc2sccc12 [Example 5.188] | ≥ 80% | – | ≥ 80% | – | ≥ 80% | ≥ 60% | ≥ 80% |
| Cc1cc(C)c(CON=C2CC3CCC(C2)N3c2ncnc3sccc23)c(C)c1 [Example 5.189] | ≥ 80% | – | ≥ 80% | ≥ 80% | – | – | – |
| FC(F)Oc1cccc(CON=C2CC3CCC(C2)N3c2ncnc3sccc23)c1 [Example 5.204] | ≥ 80% | – | ≥ 80% | – | ≥ 80% | ≥ 60% | ≥ 80% |
| Fc1cccc(Cl)c1CON=C1CC2CCC(C1)N2c1ncnc2sccc12 [Example 5.213] | ≥ 80% | – | ≥ 80% | – | ≥ 80% | – | ≥ 80% |
| Cc1nc(CON=C2CC3CCC(C2)N3c2ncnc3sccc23)cs1 [Example 5.220] | ≥ 80% | – | ≥ 80% | ≥ 80% | – | – | – |
| Cc1cccc(CON=C2CC3CCC(C2)N3c2ncnc3sccc23)c1F [Example 5.223] | ≥ 80% | – | ≥ 80% | – | ≥ 80% | – | ≥ 80% |
| COC(=O)Cc1c(Cl)ncnc1ON=C1CC2CCC(C1)N2c1ncnc2sccc12 [Example 5.237] | – | – | ≥ 80% | ≥ 80% | – | – | – |
